Data from patent US6057371A, “Sigma receptor ligands and the use thereof” (Virginia Commonwealth University, priority 1992, dated 2000).
Read-outs that look alike come from different tables or passages of the source.

Experiments:
sigma-1 binding site = molecular target: T1, sigma-1 binding site (Cavia porcellus, UniProt Q60492); assay: biochemical; design: species or system guinea pig; conditions: for sigma-2/sigma-1 selectivity: Example 8
T1 construct: Guinea pig whole membrane preparations (P2 microsomal fraction); from tissue; host or cells: guinea pig membranes (P2 microsomal fraction), as described by Weber et al; brain inferred from the sister test b489
T1 sequence (Q60492 whole entry): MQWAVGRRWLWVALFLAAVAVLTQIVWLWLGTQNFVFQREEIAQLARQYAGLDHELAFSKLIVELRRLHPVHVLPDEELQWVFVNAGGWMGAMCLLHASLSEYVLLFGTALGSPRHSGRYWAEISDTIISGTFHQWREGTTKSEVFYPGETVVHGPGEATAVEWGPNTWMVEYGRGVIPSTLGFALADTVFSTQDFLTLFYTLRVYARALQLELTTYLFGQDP
Protocol: [^3 H]DTG was purchased from DuPont/NEN.
The radioactivity on the filters was determined by scintillation spectrometry at an efficiency of about 50% using Cytoscint (ICN) scintillation fluid.

sigma-2 binding site = molecular target: T2, sigma-2 binding site (Cavia porcellus, UniProt H0V073); assay: biochemical; design: species or system guinea pig
T2 construct: Guinea pig whole membrane preparations (P2 microsomal fraction); from tissue; host or cells: guinea pig membranes (P2 microsomal fraction), as described by Weber et al; brain inferred from the sister test b489
T2 sequence (H0V073 1-176): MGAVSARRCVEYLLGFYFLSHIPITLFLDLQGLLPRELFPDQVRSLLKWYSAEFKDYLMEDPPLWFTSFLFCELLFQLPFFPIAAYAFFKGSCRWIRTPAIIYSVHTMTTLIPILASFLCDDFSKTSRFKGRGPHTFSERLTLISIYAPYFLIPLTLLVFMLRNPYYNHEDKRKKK
Protocol: For the standard equilibrium assay, the mixtures were incubated for 30 min. at room temperature, then filtered and the radioactivity determined as described above.

sigma receptor = assay: Sigma receptor binding, [^3 H]DTG, brain membranes (both sigma-1 and sigma-2 sites); design: species or system guinea pig; conditions: for IC50: Table 6, [^3 H]DTG
Protocol: Sigma receptor binding assays using guinea pig brain membrane homogenates and the radioligand [^3 H]DTG were conducted as described by Weber et al.. […] Briefly, frozen whole guinea-pig brains (Biotrol, Indianapolis, Ind.) were homogenized in 10 volumes (w/v) of ice-cold 320 mM sucrose using a Brinkman polytron. The homogenate was centrifuged at 1,000× g for 20 minutes at 4° C. The supernatant was centrifuged at 20,000× g for 20 minutes at 4° C. The resulting pellet was resuspended in 10 initial volumes of 50 mM Tris/HCl buffer at pH 7.4 and centrifuged at 20,000× g for 20 minutes at 4° C. The resulting pellet was resuspended in 5 initial volumes ice-cold 50 mM Tris/Hcl […], and the final volume was adjusted to yield a protein concentration of 3 mg/ml. Aliquots of 20-ml were stored at -70° C. until used, with no detectable loss of binding.
The protein concentration in the 1-ml final incubation volume was 800 ug/ml, corresponding to 32 mg of brain tissue (original wet weight) and to a tissue concentration within the linear range for specific binding. […] Incubations were terminated after 90 minutes at room temperature by addition of 4 ml of ice-cold 50 mM Tris/HCl (pH 7.4) and rapid filtration of the membrane suspension through Whatman GF/B glass-fiber filters under vacuum, using a 48-well cell harvester (Brandel). The filters were washed 2 times with 4 ml of 50 mM Tris/HCl (pH 7.4). Each filter was suspended in 10 ml Cytoscint (ICI), and radioactivity was measured by liquid scintillation spectrometry at a counting efficiency of approximately 50%. IC50 values were determined by non-linear regression analyis.
(§1) Further sigma receptor binding assays against [^3 H]DTG and 5HT-1A binding assays were conducted according to the procedure outlined in the previous examples.
Radioligand Binding. […] Briefly, membranes (P2 microsomal fraction) were diluted 1:3 with 50 mM Tris HCl (pH 7.4) and 0.4 mL was combined with 50 μL [^3 H]DTG (1-2 nM final concentration) and 50 μL of competing drug or buffer. After 90 min at room temperature, incubation was terminated by rapid filtration under vacuum through Whatman GF/B glass fiber filters using a Brandel 48-well cell harvester. Filters were washed three times with 5 mL of cold Tris HCl buffer and each filter was suspended in 5 mL of Cytoscint (ICN Biomedical). Radioactivity was measured by liquid scintillation spectrometry at a counting efficiency of 50%.

5-HT1A receptor = molecular target: T3, 5-HT1A receptor (Rattus norvegicus, UniProt P19327); assay: biochemical; type: binding; design: 47: 529-540 (1986); from tissue; host or cells: brain tissue, inferred from the cited method (rat frontal cortex); conditions: Table 6; read-out: 5HT-1A (nM) MEAN
T3 sequence (P19327 1-422): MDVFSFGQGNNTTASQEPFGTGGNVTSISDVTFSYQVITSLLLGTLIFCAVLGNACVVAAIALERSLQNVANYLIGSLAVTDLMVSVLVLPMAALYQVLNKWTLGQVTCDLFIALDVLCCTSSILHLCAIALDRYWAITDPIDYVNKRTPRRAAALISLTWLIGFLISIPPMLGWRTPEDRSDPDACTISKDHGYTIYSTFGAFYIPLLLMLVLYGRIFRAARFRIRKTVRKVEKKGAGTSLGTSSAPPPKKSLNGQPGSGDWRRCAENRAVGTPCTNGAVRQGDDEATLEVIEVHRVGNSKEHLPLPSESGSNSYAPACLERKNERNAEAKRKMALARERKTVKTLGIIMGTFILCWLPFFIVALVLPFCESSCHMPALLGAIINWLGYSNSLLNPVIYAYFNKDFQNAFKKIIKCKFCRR
Protocol: as §1

[1] = SIGMA-1 KI vs. 3H-PENTAZOCINE MEAN
[2] = SIGMA-2 KI vs. 3H-DTG + PENTAZOCINE MEAN
[3] = Table 10, read-out: SIGMA-2 KI vs. 3H-DTG + PENTAZOCINE MEAN
[4] = Table 10, read-out: SIGMA-1 KI vs. 3H-PENTAZOCINE MEAN
[5] = less than about 0.1, see Table 10
[6] = running text, Examples 5 and 6, read-out: sigma receptor Ki

CCCN1CCC[C@H](c2cccc(O)c2)C1 [(+)3-PPP, reference compound]
Ki (sigma-1 binding site; [1]): 47.7 nM
S1/S2 Ratio (sigma-1 binding site; Table 11, sigma-1/sigma-2): 0.097
Ki (sigma-2 binding site; [2]): 493 nM

CC(C)(C)[C@]1(O)CCN2C[C@H]3c4ccccc4CCc4cccc(c43)[C@@H]2C1 [(+)Butaclamol, reference compound]
Ki (sigma-2 binding site; [2]): 1400 nM

CCCN1CCC[C@@H](c2cccc(O)c2)C1 [(-)3-PPP, reference compound]
Ki (sigma-1 binding site; [1]): 312 nM
S1/S2 Ratio (sigma-1 binding site; Table 11, sigma-1/sigma-2): 0.248
Ki (sigma-2 binding site; [2]): 1260 nM

CC(C)(C)[C@@]1(O)CCN2C[C@@H]3c4ccccc4CCc4cccc(c43)[C@H]2C1 [(-)Butaclamol, reference compound]
Ki (sigma-2 binding site; [2]): 3420 nM

C=CCN1CC[C@@]2(C)c3cc(O)ccc3C[C@@H]1[C@@H]2C [(-)SKF 10047, reference compound]
Ki (sigma-2 binding site; [2]): 9130 nM

OC(CCCN1CCN(c2ncc(F)cn2)CC1)c1ccc(F)cc1 (stereo not shown) [BMY-14802, reference compound]
Ki (sigma-2 binding site; [3]): 133 nM

CN(C)CCCN1c2ccccc2Sc2ccc(Cl)cc21 [Chlorpromazine, reference compound]
Ki (sigma-1 binding site; [1]): 336 nM
S1/S2 Ratio (sigma-1 binding site; Table 11, sigma-1/sigma-2): 0.471
Ki (sigma-2 binding site; [2]): 714 nM

c1ccc2cc(N3CCNCC3)ccc2c1 [Compound 60, N-(2-Naphthyl)piperazine]
Ki (sigma-1 binding site; [4]): 220 nM
Ki (sigma-2 binding site; [3]): 5600 nM

CN(CCCc1ccc2ccccc2c1)CCCc1ccc2ccccc2c1 [Compound 74]
Ki (sigma-1 binding site; [4]): 30 nM
S1/S2 Ratio (sigma-1 binding site; Table 10, sigma-1/sigma-2): 0.065
IC50 ratio of sigma-1/sigma-2 (sigma-1 selective compounds) (sigma-1 binding site; [5]): less than 0.1
Ki (sigma-2 binding site; [3]): 461 nM
IC50 (sigma receptor): 81.9 nM

O=C(c1ccccc1)N1CCN(CCCCc2ccccc2)CC1 [Compound 80, N-4(4-phenylbutyl)-N'-benzoylpiperazine]
Ki (sigma-1 binding site; [4]): 71.8 nM
Ki (sigma-2 binding site; [3]): 965 nM

c1ccc(CCCNCCc2ccccc2)cc1 [Compound 87, N-(3-phenylpropyl)phenethylamine]
Ki (sigma-1 binding site; [4]): 11.3 nM
IC50 (sigma-1 binding site; Table 14, read-out: IC50 (nM) at sigma-1): 11.3 nM
IC50 (sigma-2 binding site; Example 9, read-out: sigma-2 IC50): 90 nM
Ki (sigma-2 binding site; [3]): 90.1 nM
IC50 (sigma receptor): 21.8 nM
Ki (sigma receptor; Table 7, Phenyl-(CH2)x -NH--(CH2)y -Phenyl, read-out: Ki): 19 nM
Ki (sigma receptor; [6]): 19 nM

CCC(Cc1ccccc1)NCCCCc1ccccc1 (stereo not shown) [Compound 101, N-(4-phenylbutyl)-1-phenyl-2-butylamine]
Ki (sigma-1 binding site; [4]): 2.7 nM
S1/S2 Ratio (sigma-1 binding site; Table 10, sigma-1/sigma-2): 0.026
IC50 ratio of sigma-1/sigma-2 (sigma-1 selective compounds) (sigma-1 binding site; [5]): less than 0.1
Ki (sigma-2 binding site; [3]): 104 nM
IC50 (sigma receptor): 15.7 nM

CN1CCN(CC/C=C/c2ccccc2)CC1 [Compound 103, N-(4-phenyl-3(E)-butenyl)-N'-methylpiperazine]
IC50 ratio of sigma-1/sigma-2 (sigma-1 selective compounds) (sigma-1 binding site): less than 0.1
Ki (sigma-1 binding site; SIGMA-1 KI vs. 3H-P[…]): 28.7 nM
S1/S2 Ratio (sigma-1 binding site; guinea pig, microsomes): 0.011
Ki (sigma-2 binding site; [3]): 2540 nM
IC50 (sigma receptor): 75.2 nM

CN1CCN(CC/C=C\c2ccccc2)CC1 [Compound 104, N-(4-phenyl-3(Z)-butenyl)-N'-methylpiperazine]
IC50 ratio of sigma-1/sigma-2 (sigma-1 selective compounds) (sigma-1 binding site): less than 0.1
Ki (sigma-1 binding site; SIGMA-1 KI vs. 3H-P[…]): 28.7 nM
S1/S2 Ratio (sigma-1 binding site; guinea pig, microsomes): 0.022
Ki (sigma-2 binding site; [3]): 1310 nM
IC50 (sigma receptor): 76.2 nM

CN1CCN(CCCCc2ccccc2)CC1 [Compound 106, N-(4-phenyl)-N'-methylpiperazine]
Ki (sigma-1 binding site; [4]): 19.3 nM
S1/S2 Ratio (sigma-1 binding site; Table 10, sigma-1/sigma-2): 0.022
IC50 ratio of sigma-1/sigma-2 (sigma-1 selective compounds) (sigma-1 binding site; [5]): less than 0.1
Ki (sigma-2 binding site; [3]): 899 nM
IC50 (sigma receptor): 49.8 nM

CC(C)=CCN(C)[C@@H](C)Cc1ccccc1 [Compound 114]
IC50 (sigma receptor): 6.71 nM
IC50 (5-HT1A receptor): 34000 nM

CC(C)CCN(C)[C@@H](C)Cc1ccccc1 [Compound 115]
IC50 (sigma receptor): 3.04 nM
IC50 (5-HT1A receptor): 20000 nM

OC1(Cc2ccccc2)CCN(CCCCCc2ccccc2)CC1 [Compound 118]
IC50 (sigma receptor): 2.14 nM
IC50 (5-HT1A receptor): 1970 nM

c1ccc(CCCCCN2CCCCC2)cc1 [Compound 124, N-(5-phenylpentyl)piperidine]
sigma-2/sigma-1 selectivity (sigma-1 binding site): 100
Ki (sigma-1 binding site; [4]): 0.48 nM
S1/S2 Ratio (sigma-1 binding site; Table 10, sigma-1/sigma-2): 0.010
IC50 ratio of sigma-1/sigma-2 (sigma-1 selective compounds) (sigma-1 binding site; [5]): less than 0.1
Ki (sigma-2 binding site; [3]): 49.9 nM
IC50 (sigma receptor): 2.05 nM

CN(C)CCCCCc1ccccc1 [Compound 125, N,N-Dimethyl-5-phenylpentylamine]
sigma-2/sigma-1 selectivity (sigma-1 binding site): 96
Ki (sigma-1 binding site; [4]): 10.4 nM
S1/S2 Ratio (sigma-1 binding site; Table 10, sigma-1/sigma-2): 0.011
IC50 ratio of sigma-1/sigma-2 (sigma-1 selective compounds) (sigma-1 binding site; [5]): less than 0.1
Ki (sigma-2 binding site; [3]): 965 nM
IC50 (sigma receptor): 38.8 nM
Ki (sigma receptor; [6]): 35 nM

CN(CCCCCc1ccccc1)Cc1ccccc1 [Compound 137, N-Benzyl-N-methyl-5-phenylpentylamine]
Ki (sigma-2 binding site; [3]): 12.5 nM
IC50 (sigma-2 binding site; Table 18, read-out: IC50 (nM) at sigma-2): 12 nM
IC50 (sigma receptor): 1.11 nM

COc1ccc2c(c1)[C@]13CCCC[C@@H]1[C@H](C2)N(C)CC3 [Dextromethorphan, reference compound]
Ki (sigma-1 binding site; SIGMA-1 KI vs. 3H-P[…]): 522 nM
S1/S2 Ratio (sigma-1 binding site; guinea pig, microsomes): 0.035
Ki (sigma-2 binding site; [2]): 15000 nM

CC(C(O)c1ccc(O)cc1)N1CCC(Cc2ccccc2)CC1 (stereo not shown) [Ifenprodil, reference compound]
Ki (sigma-2 binding site; [2]): 2.39 nM

OCCN1CCN(CCCN2c3ccccc3Sc3ccc(Cl)cc32)CC1 [Perphenazine, reference compound]
Ki (sigma-1 binding site; [1]): 25.1 nM
S1/S2 Ratio (sigma-1 binding site; Table 11, sigma-1/sigma-2): 0.312
Ki (sigma-2 binding site; [2]): 80.4 nM

CC(C)N(CCNC(=O)CN1CCCC1=O)C(C)C [Pramiracetam, reference compound]
Ki (sigma-1 binding site; [1]): 10000 nM
S1/S2 Ratio (sigma-1 binding site; Table 11, sigma-1/sigma-2): 1.000
Ki (sigma-2 binding site; [2]): 10000 nM

C[C@@H]1CN(CCCn2c3ccccc3c3ccccc32)C[C@H](C)N1 [Rimoazole, reference compound]
Ki (sigma-2 binding site; [2]): 265 nM

CN1CCN(CCCN2c3ccccc3Sc3ccc(C(F)(F)F)cc32)CC1 [Trifluperizine, reference compound]
Ki (sigma-1 binding site; [1]): 561 nM
S1/S2 Ratio (sigma-1 binding site; Table 11, sigma-1/sigma-2): 3.497
Ki (sigma-2 binding site; [2]): 161 nM
